Measured values reported in article PMC5773577, “Novel Miniature Membrane Active Lipopeptidomimetics against Planktonic and Biofilm Embedded Methicillin-Resistant Staphylococcus aureus” (Scientific Reports, 2018).
Converted amounts (≈) assume the structure as drawn.

Legend:
[1] = system: Methicillin-resistant S. epidermidis (ATCC 35984); test: microbe, parasite or virus in culture; format: cell-based, Staphylococcus epidermidis; settings: Staphylococcus epidermidis, ATCC 35984 / MRSE; MRSE ATCC 35984; MHB, 2–5 × 10^5 CFU/mL, 16–18 h, 37 °C, OD600; read-out: Minimum inhibitory concentration, MIC
How it was run: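 Serial 2-fold dilutions of test agent in 0.2% BSA (0.01% HOAc); inoculum 2–5 × 10^5 CFU/mL mid-log cells in MHB; 37 °C, 180 rpm, 16–18 h; OD600 read-out. n = duplicate × ≥3 days.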

MRSA ATCC 33591 biofilm [2] = test: Biofilm formation inhibition, crystal violet (CV) assay; format: cell-based, Staphylococcus aureus; settings: 24 h biofilm formation inhibition, 2.5 μg/mL
Protocol: (§1) For the experiment, a protocol as described previously was used with slight modifications. Briefly, desired concentrations of the test agents in PBS were added to the wells of a 96-well plate (100 μL). Thereafter, overnight grown stationary phase MRSA ATCC 33591 culture (~4 × 10^5 CFU/mL) in TSB medium (supplemented with 0.25% glucose and 0.5% NaCl) was added to the 96-well plates (100 μL). The plates were incubated at 37 °C without shaking for 24 h. After 24 h, the used medium was discarded and the biofilms formed were washed with PBS once. Subsequently, CV and AB assays were performed to quantify biomass and viability respectively, as described below:
For CV assay after washing the biofilms, the plates were heat fixed at 60 °C for 1 h and 0.1% aqueous CV solution (200 μL) was added to the wells. After 15 min incubation, excess CV was washed off and biomass adhered CV was dissolved in 33% glacial acetic acid (200 μL). The plates were kept at room temperature for 15 min. […] To quantify CV associated biomass, the absorbance was read at 570 nm.
The experiments were repeated on two different days and on each day 6 wells were used for a single treatment. […] Corresponding to CV and AB assay the viability of cells upon treatment was also evaluated. […] The agar plates were incubated at 37 °C for 16–24 h and CFUs were counted. […]

MRSA ATCC 33591 [3] = test: Cell viability corresponding to calcein leakage experiment; format: cell-based, Staphylococcus aureus; settings: calcein-loaded cells in PBS, 4 × MIC (melittin 10 μM), 2 h incubation
Protocol: To assess the effect of designed peptidomimetics on membrane integrity of MRSA ATCC 33591 strain a calcein-AM dye release experiment was performed using the protocol described previously with slight modifications[51]. Briefly, exponential phase MRSA ATCC 33591 culture was prepared in MHB medium as mentioned earlier and adjusted to OD600 = 1 (~10^9 CFU/mL) in PBS (10 mM sodium phosphate, 150 mM NaCl, pH 7.4). Thereafter, the cells were incubated at 37 °C with calcein-AM (2 μg/mL) in 10% MHB medium for 2 h. The calcein-loaded cells were washed once and re-suspended in PBS to OD600 = 0.5 (~10^8 CFU/mL). The cells were diluted 100× in PBS to get 3–5 × 10^5 CFU/mL and were incubated with different concentrations of test agents at 37 °C in dark for 2 h. Subsequently, calcein fluorescence was measured via flow cytometry (Becton Dickinson (BD) FACS verse, San Jose, CA) with excitation and emission wavelengths of 488 nm and 530 ± 30 nm, respectively. For each sample, 10,000 cells were acquired. As a positive control, melittin (10 μM) was assayed under identical conditions. The experiment was repeated on two different days and mean ± S.D. is presented here. […]
agar plates. The plates were incubated at 37 °C for 16-18 h and colonies were counted. […]

MRSA ATCC 33591 [4] = test: Membrane permeabilization assay, calcein-AM dye release, flow cytometry; format: cell-based, Staphylococcus aureus; settings: PBS, 37 °C, mean ± S.D., two days
Protocol: To assess the effect of designed peptidomimetics on membrane integrity of MRSA ATCC 33591 strain a calcein-AM dye release experiment was performed using the protocol described previously with slight modifications. Briefly, exponential phase MRSA ATCC 33591 culture was prepared in MHB medium as mentioned earlier and adjusted to OD600 = 1 (~10^9 CFU/mL) in PBS (10 mM sodium phosphate, 150 mM NaCl, pH 7.4). Thereafter, the cells were incubated at 37 °C with calcein-AM (2 μg/mL) in 10% MHB medium for 2 h. The calcein-loaded cells were washed once and re-suspended in PBS to OD600 = 0.5 (~10^8 CFU/mL). […] Subsequently, calcein fluorescence was measured via flow cytometry (Becton Dickinson (BD) FACS verse, San Jose, CA) with excitation and emission wavelengths of 488 nm and 530 ± 30 nm, respectively. For each sample, 10,000 cells were acquired. As a positive control, melittin (10 μM) was assayed under identical conditions. The experiment was repeated on two different days and mean ± S.D. is presented here. Corresponding to leakage a viability assay at 4 × MIC of respective test agents was also performed by incubating samples for 2 h at 37 °C and plating the diluted aliquots on BHI agar plates.

MRSA ATCC 33591 [5] = test: Membrane depolarization assay, DiSC3(5); format: cell-based, Staphylococcus aureus; settings: for % depolarization relative to melittin control (10 μM, set as 100%): 2 min, DiSC3(5), HEPES-glucose buffer pH 7.2, 37 °C, mean ± S.D., two days
Protocol: The cytoplasmic membrane depolarization in MRSA ATCC 33591 strain was measured using membrane potential sensitive dye 3,3′-dipropylthiacarbocyanine iodide (DiSC3(5)) with a protocol described previously with slight modifications[23],[48]. Briefly, exponential phase cells grown in MHB were harvested by centrifugation, washed and re-suspended in respiration buffer (5 mM HEPES, 20 mM glucose, pH 7.2) to 2.5 × 10^6 CFU/mL. The cells were divided into 1 mL aliquots and incubated with 3.6 μM of DiSC3(5) (in dark) for 30 min to get steady baseline fluorescence intensity. The dye-loaded cells (800 μL) were then treated with peptidomimetics at respective 1× and 4× MIC concentrations (2–20 μL) and consequent fluorescence increase after 2 min of addition was measured in a Shimadzu RF-5301 PC spectrofluorimeter. As controls IL, melittin and VAN were also assayed under identical conditions. The samples were excited at 622 nm and emission was recorded between 650–700 nm with 3 nm slit width for both excitation and emission. The temperature was maintained at 37 °C throughout the experiment. Depolarization kinetics was measured at 4 × MIC of test agents for 5 min. The experiment was repeated on two different days and for Fig. 3 panel (A) mean ± S.D. data for % depolarization relative to melittin control (10 μM) set as 100% is presented here. For panel (B) representative data is shown here. The viability of dye-loaded cells corresponding to depolarization experiment at 4 × MIC concentration was also measured by plating the diluted aliquots onto BHI agar plates.

MRSA ATCC 33591 biofilm [6] = test: Biofilm formation inhibition, viable count assay; format: cell-based, Staphylococcus aureus; settings: 24 h biofilm formation inhibition, 2.5 μg/mL
Protocol: as §1
The experiments were repeated on two different days and on each day 6 wells were used for a single treatment. Mean ± S.E. for both CV assay and AB assay is presented here. Corresponding to CV and AB assay the viability of cells upon treatment was also evaluated. Towards this 200 μL PBS was added to washed and treated wells of the 96-well plate and the contents were scraped thoroughly. The resulting bacterial suspension was sonicated briefly, diluted in PBS and plated on BHI agar plates. The agar plates were incubated at 37 °C for 16–24 h and CFUs were counted. Mean ± S.E. data from two independent experiments performed on two different days is shown here.

## CN[C@H](CC(C)C)C(=O)N[C@H]1C(=O)N[C@@H](CC(N)=O)C(=O)N[C@H]2C(=O)N[C@H]3C(=O)N[C@H](C(=O)N[C@H](C(=O)O)c4cc(O)cc(O)c4-c4cc3ccc4O)[C@H](O)c3ccc(c(Cl)c3)Oc3cc2cc(c3O[C@@H]2O[C@H](CO)[C@@H](O)[C@H](O)[C@H]2O[C@H]2C[C@](C)(N)[C@H](O)[C@H](C)O2)Oc2ccc(cc2Cl)[C@H]1O [VAN, vancomycin]
[1]
  MIC: 2.8 µg/mL (≈ 1.93 µM)
MRSA ATCC 33591 biofilm [2]
  reduction of biomass (CV assay): > 95%
MRSA ATCC 33591 [3]
  log reduction in viability: no reduction
MRSA ATCC 33591 [4]; at 4 × MIC, 2 min incubation
  % calcein leakage: did not cause any leakage
MRSA ATCC 33591 [4]; at 4 × MIC, 2 h incubation
  % calcein leakage: 11.9 ± 9.2%
MRSA ATCC 33591 [4]; at MIC, 2 min incubation
  % calcein leakage: 1.6 ± 2.3%
MRSA ATCC 33591 [5]; 4 × MIC, monitored for 5 min
  Depolarization kinetics: time to increase in relative fluorescence intensity (RFI): RFI values similar to untreated control cells
MRSA ATCC 33591 [5]; at 4 × MIC
  % depolarization relative to melittin control (10 μM, set as 100%): 4.7 ± 4.1%
MRSA ATCC 33591 [5]; at MIC
  % depolarization relative to melittin control (10 μM, set as 100%): 2.9 ± 4.8%
MRSA ATCC 33591 biofilm [6]
  log reduction in viability compared to 24 h growth control: > 3 log
MRSA ATCC 33591 biofilm [6]; mean ± S.E., two experiments, untreated 7.59 ± 0.08
  remaining viable count: 1.44 ± 1.44 log CFU/mL
